Data published in patent US20080003305A1, “PROCESS AND COMPOSITIONS FOR THE DISINFECTION OF WATERS” (BROMINE COMPOUNDS LIMITED, priority 1991, published 2008).

How the values were obtained:
[1] = tested on: survivors in water taken from a citrus juice evaporator; assay: Efficacy in water taken from a citrus juice evaporator; comparison to non-oxidizing biocides; format: cell-based; details: dose 30 mg/l
Description: Efficacy of NH4Cl+NaOCl in Water Taken from a Citrus Juice Evaporator; Comparison to Non-Oxidizing Biocides
Water demand: higher than 30 ppm of Cl2 (out of 30 ppm Cl2) within 60 minutes.
Concentration of stock solution (NH4Cl+NaOCl): 1000 ppm.
Algicol II is a quaternary ammonium salt.

[2] = tested on: MOs in starch sizing mixture; assay: Efficacy of oxidizing and non-oxidizing biocides in a starch sizing mixture (paper industry); format: cell-based; details: 30 ppm active ingredient, 60° C.; for Surviving MOs after time (hours): 4: 4 hours; for Surviving MOs after time (hours): 28: 28 hours; for Surviving MOs after time (hours): 48: 48 hours; for Surviving MOs after time (hours): 72: 72 hours
Description: Efficacy of Oxidizing and Non-Oxidizing Biocides is a Starch Sizing Mixture (Paper Industry)
Efficacy was measured at 60° C.
NH4Br+NaOCl: stock concentration 0.1%.
Dosage: 30 ppm active ingredient.
Incubation temperature 60° C.

total aerobic MOs = assay: Kinetics of kill in water from a citrus juice evaporator: total aerobic; format: cell-based; details: 30 ppm as Cl2
Description: (§1) Kinetics of Kill of Various Mixtures of Ammonium Salts Mixed with NaOCl in Water from a Citrus Juice Evaporator
(§2) Demand: Higher than 30 ppm out of 30 ppm of Cl2 during 10 minutes.
(§3) Stock concentration of NH4X+NaOCl: 0.1% as Cl2

total count [3] = assay: Efficacy of oxidizing biocides in domestic waste: total count; format: cell-based; details: 20 ppm as Cl2; contact time 10 minutes
Description: (§4) Efficacy of Oxidizing Biocides in Domestic Waste
(§5) Non-treated domestic waste roughly filtered; contact time: 10 minutes.
(§6) Stock concentration: 0.5% as Cl2.

[4] = Residue as Cl2 in domestic waste; format: physicochemical; details: 20 ppm as Cl2, contact time 10 minutes
Description: as §4, §5, §6

aerob. MOs = assay: Efficacy in domestic waste containing a high concentration of amines: aerobic MOs; format: cell-based; details: 60 ppm; contact time 10 minutes; N as NH3 50mg/l; pH 6.10
Description: (§7) Efficacy of a Series of Biocides in Domestic Waste Containing a High Concentration of Amines
(§8) Incubation temperature: 27° C.
(§9) Stock concentration: 0.2%

total anaerobic MOs = assay: Kinetics of kill in water from a citrus juice evaporator: total anaerobic; format: cell-based; details: 30 ppm as Cl2
Description: as §1, §2, §3

Pseudomonas sp. = assay: Efficacy in buffer at pH-7.5 against Pseudomonas sp.; format: cell-based; details: buffer pH 7.5, 1 ppm as Cl2
Description: Efficacy in Buffer at pH-7.5 against Pseudomonas sp.
Chlorine demand: 0.1 ppm out of 1 ppm within 20 minutes
NH4Br+NaOCl: stock concentration: 1000 ppm as Cl2
Preparation of stock solution: NH4Br was dissolved in de-ionized water (2761 ppm). NaOCl (2000 ppm as Cl2) was quickly added dropwise to the ammonium bromide solution while stirring the mixture. The stock solution was used immediately.

[5] = Residue as Cl2 in water from a citrus juice evaporator; format: physicochemical; details: 30 ppm as Cl2
Description: as §1, §2, §3

bacillus mycoides = assay: Efficacy of ammonium bromide at various pHs; format: cell-based; details: 2 ppm as Cl2
Description: Efficacy of Ammonium Bromide at Various pHs
Examined MO: bacillus mycoides
NH4Br+NaOCl: molar ratio 1:1; stock concentration: 0.5%;
NH4Br+NaOCl was either pre-mixed or added in situ to the buffer.
Demand: 1.8 ppm out of 2 ppm of Cl2 within 60 minutes.

anaer. MOs = assay: Efficacy in domestic waste containing a high concentration of amines: anaerobic MOs; format: cell-based; details: 60 ppm; contact time 10 minutes; N as NH3 50mg/l; pH 6.10
Description: as §7, §8, §9

[6] = Residue as Cl2 in domestic waste containing a high concentration of amines; format: physicochemical; details: 60 ppm
Description: as §7, §8, §9

[7] = tested on: fouling of size press filters; assay: Field experiment, starch sizing mixture (paper mill); details: NaOCl (10% as Cl2) fed every 8 hours, 30 liters per portion
Description: • Paper mill, starch sizing • Contained volume: 20 m^3 • Flow rate: 8.33 m^3/h. (6% starch in H2O), • pH about 8.0 • Temperature: 50° C.-70° C.
Sizing mixture is recirculated in a size press through a filter (80 microns). Circulation rate: 6 m^3/h. The sizing mixture had been previously treated with NaOCl (10% as Cl2), which was fed every 8 hours (30 liters per portion).
Use of NaOCl was replaced by the use of a mixture of NH4Br+NaOCl (stock concentration 0.5% as Cl2).

Fecal coli = assay: Efficacy of oxidizing biocides in domestic waste: fecal coli; format: cell-based; details: 20 ppm as Cl2; contact time 10 minutes
Description: as §4, §5, §6

total count [8] = assay: Dependence of efficacy of NH4Br+NaOCl on the concentration of stock solution, industrial waste water; format: cell-based; details: no pre-mixed stock, 4 ppm as Cl2
Description: Dependence of Efficacy of Mixtures of NH4Br+NaOCl on the Concentrations of Stock Solution
Work was carried out in industrial waste water.
Stock concentrates were prepared in buffer at pH 7.00.
Biocidal dose: 4 ppm as Cl2.

[9] = tested on: total aerobic viable counts; assay: Efficacy of oxidizing biocides in water taken from a paper mill (thick stock of pulp slurry); format: cell-based; details: 15 mg/l as Cl2
Description: Efficacy of Oxidizing Biocides in Water Taken from a Paper Mill (Thick Stock of Pulp Slurry)
Microorganisms were incubated at 37° C. (total aerobic viable counts).
Concentration of stock solution: 0.1% as Cl2.

total count [10] = assay: Pre-mixing versus in situ addition of ammonium salts and NaOCl, water from a corn-processing plant; format: cell-based; details: 12 ppm, stock formed in water
Description: Pre-Mixing Versus in Situ Addition of Ammonium Salts and NaOCl
Water from a corn-processing plant; high demand for Cl2,
NH4Cl+NaOCl: stock concentration: 1%
NH4Br+NaOCl: stock concentration: 0.5%
Stock solutions were formed at pH 14.0; 7.0, 4.0 and in water.
For in situ addition: both NH4X and NaOCl were dissolved at the appropriate pH.

N#CSCSC#N [MBT]
Survivors after time (hours): 1 ([1]; 1 hour): 1 × 10^6 cfu/ml | Survivors after time (hours): 24 ([1]; 24 hours): 1 × 10^3 cfu/ml | Survivors after time: 7 days ([1]; 7 days): 8 × 10^2 cfu/ml | Surviving MOs after time (hours): 4 [2]: 9 × 10^4 cfu/ml | Surviving MOs after time (hours): 28 [2]: 4 × 10^4 cfu/ml | Surviving MOs after time (hours): 48 [2]: 2 × 10^4 cfu/ml | Surviving MOs after time (hours): 72 [2]: 2 × 10^4 cfu/ml

Cn1sccc1=O [MIT]
Surviving MOs after time (hours): 4 [2]: 2 × 10^4 cfu/ml | Surviving MOs after time (hours): 28 [2]: 2 × 10^3 cfu/ml | Surviving MOs after time (hours): 48 [2]: 2 × 10^3 cfu/ml | Surviving MOs after time (hours): 72 [2]: 1 × 10^3 cfu/ml

[Na+].[O-]Cl [NaOCl, sodium hypochlorite]
Surviving MOs after time (minutes); total aerobic: 10 (total aerobic MOs; 10 minutes): 2 × 10^5 cfu/ml | Surviving MOs after time (minutes); total aerobic: 20 (total aerobic MOs; 20 minutes): 2 × 10^7 cfu/ml | Surviving MOs after time (minutes); total aerobic: 60 (total aerobic MOs; 60 minutes): 1 × 10^7 cfu/ml | total count (total count [3]): 6 × 10^6 cfu/ml | residue as Cl2 free ([4]; free): 0 (0) ppm | residue as Cl2 (total) ([4]; total): 0 (0) ppm | Surviving MOs after 10 minutes aerob. (aerob. MOs): 9 × 10^2 cfu/ml | Surviving MOs after time (minutes); (total anaerobic): 10 (total anaerobic MOs; 10 minutes): 8 × 10^4 cfu/ml | Surviving MOs after time (minutes); (total anaerobic): 20 (total anaerobic MOs; 20 minutes): 3 × 10^6 cfu/ml | Survivors after time (minutes): 1 (Pseudomonas sp.; 1 minute): 4 × 10^6 cfu/ml | Survivors after time (minutes): 5 (Pseudomonas sp.; 5 minutes): 1 × 10^5 cfu/ml | Survivors after time (minutes): 10 (Pseudomonas sp.; 10 minutes): 4 × 10^2 cfu/ml | Survivors after time (minutes): 20 (Pseudomonas sp.; 20 minutes): 0 cfu/ml | residue as Cl2 free after time (minutes): 10 ([5]; free, 10 minutes): 0 (0) | residue as Cl2 free after time (minutes): 20 ([5]; free, 20 minutes): 0 (0) | residue as Cl2 free after time (minutes): 60 ([5]; free, 60 minutes): 0 (0) | residue as Cl2 (total) after time (minutes): 10 ([5]; total, 10 minutes): 0 (0) | residue as Cl2 (total) after time (minutes): 20 ([5]; total, 20 minutes): 0 (0) | residue as Cl2 (total) after time (minutes): 60 ([5]; total, 60 minutes): 0 (0) | Survivors pH-7.0 60 m (bacillus mycoides; pH 7.0, 60 m): 1 × 10^5 cfu/ml | Survivors pH-7.0 180 m (bacillus mycoides; pH 7.0, 180 m): 1 × 10^5 cfu/ml | Survivors pH-7.0 24 h (bacillus mycoides; pH 7.0, 24 h): 1 × 10^5 cfu/ml | Survivors pH-8.0 60 m (bacillus mycoides; pH 8.0, 60 m): 3 × 10^5 cfu/ml | Survivors pH-8.0 180 m (bacillus mycoides; pH 8.0, 180 m): 1 × 10^5 cfu/ml | Survivors pH-8.0 24 h (bacillus mycoides; pH 8.0, 24 h): 1 × 10^5 cfu/ml | Survivors pH-9.0 60 m (bacillus mycoides; pH 9.0, 60 m): 1 × 10^5 cfu/ml | Survivors pH-9.0 180 m (bacillus mycoides; pH 9.0, 180 m): 1 × 10^5 cfu/ml | Survivors pH-9.0 24 h (bacillus mycoides; pH 9.0, 24 h): 1 × 10^5 cfu/ml | Surviving MOs after 10 minutes anaer. (anaer. MOs): 3 × 10^3 cfu/ml | Surviving MOs after time (hours): 4 [2]: 4 × 10^3 cfu/ml | Surviving MOs after time (hours): 28 [2]: 2 × 10^6 cfu/ml | Surviving MOs after time (hours): 48 [2]: 3 × 10^6 cfu/ml | Surviving MOs after time (hours): 72 [2]: 3 × 10^6 cfu/ml | Residue free as Cl2 after 10 minutes ([6]; free): 0.2 | Residue (total) as Cl2 after 10 minutes ([6]; total): 1.5 | frequency of filter washing [7]: filters had to be washed once every two hours | Fecal coli (Fecal coli): 5 × 10^5 cfu/ml | Survivors total count after time (minutes): 10 (total count [8]; 10 minutes): 9 × 10^5 cfu/ml | Survivors total count after time (minutes): 180 (total count [8]; 180 minutes): 7 × 10^5 cfu/ml | Viable counts after time (minutes): 30 ([9]; 30 minutes): 6 × 10^3 cfu/ml | Viable counts after time (minutes): 70 ([9]; 70 minutes): 2 × 10^3 cfu/ml | Viable counts after time: 25 hours ([9]; 25 hours): 1 × 10^5 cfu/ml | Survivors (total count) H2O, 60 minutes (total count [10]; 60 minutes): 2 × 10^6 cfu/ml | Survivors (total count) H2O, 180 minutes (total count [10]; 180 minutes): 2 × 10^6 cfu/ml
